This is an account of results in patent US20210284621A1 (priority 2018, published 2021).

Read-outs that look alike come from different tables or passages of the source.

The test system of assay [1] is 12 systems of human primary cells. In words: BioMAP Diversity PLUS phenotypic screen. The class given is cell-based. The settings on record: 3.3 μM; changes at least 1.5-fold from vehicle control. On the procedure:
Compounds of the invention were assayed for their effects on 148 biomarkers of inflammation, immune modulation and tissue remodeling in the BioMAP® Diversity PLUS® (DiscoverX) platform designed to model aspects of human diseases in vitro (Kunkel 2004, Berg 2006, Melton 2013).
The example compounds (3.3 μM) in Table 8 induced increases or decreases in the levels of the indicated 20 biomarkers, which are at least 1.5-fold change from vehicle control and are outside the significance prediction envelop. All compounds presented in Table 8 were not cytotoxic at the concentration tested.

For assay [2], the target named is T1, CB1 receptor (Homo sapiens, UniProt P21554). In words: cell-based. The arrangement: host or cells: PathHunter cell lines.
Assay [3] concerns the target T2, CB2 receptor (Homo sapiens, UniProt P34972). In words: cell-based. The arrangement: host or cells: cAMP Hunter cell lines. The procedure, abridged: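 PathHunter β-Arrestin enzyme fragment complementation cells, EA-tagged β-Arrestin and PK-tagged receptor, exposed to compound for 90 to 180 minutes at 37° C. or room temperature, 1% vehicle. Chemiluminescence read 1 h after detection reagent; agonist % activity relative to vehicle and MAX control ligand.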

Assay [4] has as its target T1, CB1 receptor. The assay is described as follows: CB1 competitive radioligand binding assay ([3H] SR141716A). The arrangement: expressed in transfected cells; host or cells: Chem-1 cells. The settings on record: for inhibition at 0.5 µM: 0.5 μM compound, 2.0 nM [3H] SR141716A, 90 min 37° C. The procedure, abridged:
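Chem-1 cells expressing human recombinant CB1 incubated 90 min at 37° C with 2.0 nM [3H]SR141716A and compound at 0.5 μM (1% DMSO) in HEPES pH 7.4 buffer with MgCl2, CaCl2, 0.2% BSA. Read-out is % inhibition of radioligand binding.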

The target in assay [5] is T2, CB2 receptor. In words: CB2 competitive radioligand binding assay ([3H] WIN-55,212-2). The arrangement: expressed in transfected cells; host or cells: CHO-K1 cells. The conditions noted are these: for inhibition at 0.05 µM: 0.05 μM compound, 2.4 nM [3H] WIN-55,212-2, 90 min 37° C. The essentials: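 Single-concentration displacement: 2.4 nM [3H]WIN-55,212-2 competed with 0.05 μM compound (1% DMSO) for 90 min at 37 °C on human CB2 expressed in CHO-K1 cells (HEPES 20 mM, pH 7.0, 0.5% BSA). Result given as % inhibition of bound radioligand.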

Assay [6] has as its target T1, CB1 receptor. The assay is described as follows: cAMP Assay #2: Hit Hunter cAMP assay, Gi-coupled agonist activity, CB1. The format is cell-based. The arrangement: host or cells: PathHunter cell lines. Background: Cyclic AMP is a second messenger, typically raised through Gs and lowered through Gi signalling.
In assay [7] the target is T2, CB2 receptor. The assay is described as follows: cAMP Assay #2: Hit Hunter cAMP assay, Gi-coupled agonist activity, CB2. The conditions noted are these: for CB2 fold selectivity: CB1 EC50 / CB2 EC50. The format is cell-based. The arrangement: host or cells: cAMP Hunter cell lines.
In assay [8] the target is T1, CB1 receptor. The assay is described as follows: cAMP Assay #1: CB1 adenylylcyclase assay in CHO cells. The class given is cell-based. The arrangement: expressed in transfected cells; host or cells: CHO cells. The method, then:
(§1) Compounds of the invention were assayed in an adenylylcyclase assay to determine agonist activity on the CB1 and CB2 receptors, the results of which are provided in Table 4. Exemplary methods for the adenylylcyclase assay can be found in the literature, for example, in Rhee, M-H., et al. Cannabinol Derivatives: Binding to Cannabinoid Receptors and Inhibition of Adenylylcyclase. J Med Chem. 40: 3228-3233 (1997).
CB1 Activity as determined by Adenylylcyclase Assay: CB1 receptor agonist activity was measured by measuring cAMP production. A compound of the invention was incubated with CHO cells expressing human recombinant CB1 for 20 minutes at 37° C.
(§2) Determination of EC50 values: The EC50 values (concentration producing a half-maximal response) were determined by non-linear regression analysis of the concentration-response curves generated with mean replicate values using Hill equation curve fitting: Y=D+[(A−D)/(1+(C/C50)^nH)], where Y=response, A=left asymptote of the curve, D=right asymptote of the curve, C=compound concentration, and C50=EC50, and nH=slope factor. This analysis was performed using software developed at Cerep (Hill software) and validated by comparison with data generated by the commercial software SigmaPlot® 4.0 for Windows® (© 1997 by SPSS Inc.).

Assay [9] has as its target T2, CB2 receptor. In words: cAMP Assay #1: CB2 adenylylcyclase assay in CHO cells. The format is cell-based. The arrangement: expressed in transfected cells; host or cells: CHO cells. On the procedure:
as §1
CB2 Activity as determined by Adenylylcyclase Assay: CB2 receptor agonist activity was measured by measuring cAMP production. A compound of the invention was incubated with CHO cells expressing human recombinant CB2 for 10 minutes at 37° C.
as §2

Where [10] appears, read: PathHunter agonist mode, read-out: CB1 Activity (β-Arrestin).
The mark [11] stands for this setting: PathHunter agonist mode, read-out: CB2 Activity (β-Arrestin).
The mark [12] stands for this setting: Hit Hunter cAMP, 20 μM forskolin, control ligand CP55,940, read-out: CB1, EC50.
The mark [13] stands for this setting: Hit Hunter cAMP, 25 μM forskolin, control ligand CP55,940, read-out: CB2, EC50.
Setting [14] is: CHO cells, 20 min 37° C., relative to 10 nM CP 55940, read-out: CB1 Activity EC50 (cAMP).
The mark [15] stands for this setting: CHO cells, 10 min 37° C., relative to 100 nM WIN 55212-2, read-out: CB2 Activity EC50 (cAMP).
Where [16] appears, read: Table 2, read-out: CB1 Binding Ki.
Setting [17] is: Table 2, read-out: CB2 Binding Ki.

T1 sequence (P21554 whole entry, the tested form may be a part): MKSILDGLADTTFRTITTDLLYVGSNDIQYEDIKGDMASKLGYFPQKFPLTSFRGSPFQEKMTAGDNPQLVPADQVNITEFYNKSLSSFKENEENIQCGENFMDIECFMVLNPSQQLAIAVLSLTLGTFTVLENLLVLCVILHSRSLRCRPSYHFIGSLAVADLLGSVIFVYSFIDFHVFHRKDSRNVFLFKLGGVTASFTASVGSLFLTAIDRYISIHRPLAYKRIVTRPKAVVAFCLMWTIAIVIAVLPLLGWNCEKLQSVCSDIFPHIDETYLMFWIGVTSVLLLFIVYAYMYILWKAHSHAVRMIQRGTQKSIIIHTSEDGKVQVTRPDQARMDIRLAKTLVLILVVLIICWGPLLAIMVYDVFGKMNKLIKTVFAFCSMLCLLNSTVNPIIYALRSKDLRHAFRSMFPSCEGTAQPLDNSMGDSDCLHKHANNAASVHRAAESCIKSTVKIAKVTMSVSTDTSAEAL
T2 sequence (P34972 whole entry, the tested form may be a part): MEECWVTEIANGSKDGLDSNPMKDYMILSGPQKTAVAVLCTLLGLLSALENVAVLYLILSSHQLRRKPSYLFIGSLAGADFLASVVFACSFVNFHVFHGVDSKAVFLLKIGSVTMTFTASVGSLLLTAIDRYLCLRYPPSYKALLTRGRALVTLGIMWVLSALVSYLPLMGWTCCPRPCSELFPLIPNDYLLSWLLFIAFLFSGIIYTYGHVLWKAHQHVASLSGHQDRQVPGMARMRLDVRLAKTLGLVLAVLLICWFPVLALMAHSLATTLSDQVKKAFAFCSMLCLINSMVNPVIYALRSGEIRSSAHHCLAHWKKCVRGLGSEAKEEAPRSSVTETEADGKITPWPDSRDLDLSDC

The Ki is the dissociation constant of the complex between target and ligand, obtained from inhibition or displacement. `CCCCCCC(C)(C)c1cc(O)c2c(c1)OC(C)(C)[C@@H]1CC=C(C(=O)NC3CCC3)C[C@@H]21` [Compound 44, (6aR,10aR)-N-cyclobutyl-1-hydroxy-6,6-dimethyl-3-(2-methyloctan-2-yl)-6a,7,10,10a-tetrahydro-6H-benzo[c]chromene-9-carboxamide]: the “Immune modulation, cell surface and tissue remodeling biomarkers” value (“Immune modulation” below) in [1] is “Reduced MCP-1, P-selectin, and IL-1α”. Besides, the EC50 came to 11.1 nM in [2] (setting [10]) and 1.6 nM in assay [3] (setting [11]). Further, the results for the inhibitory constant (Ki) in assay [4] and in assay [5] were 33.5 nM and 2.4 nM, respectively. Also, in [5] (Table 3, ratio of Ki CB1/CB2), the “Fold Selectivity (CB1/CB2)” value was 14.0.

Consider `CCCCCCC(C)(C)c1cc(O)c2c(c1)OC(C)(C)[C@@H]1CC=C(C(=O)NC(C)=N)C[C@@H]21` [Compound 94, (6aR,10aR)-1-hydroxy-N-(1-iminoethyl)-6,6-dimethyl-3-(2-methyloctan-2-yl)-6a,7,10,10a-tetrahydro-6H-benzo[c]chromene-9-carboxamide], for which the “Immune modulation” value in assay [1] was “Reduced MCP-1 and CD69; increased IL-1α”. In addition, the EC50 was 7.9 nM in assay [6], 94.9 nM in assay [2], 6.3 nM in assay [7] and 4.3 nM in [3]. For the same compound, in [7] (Hit Hunter cAMP), the CB2 fold selectivity is 1.3. The Ki in [4] came out at 18.8 nM; in assay [5] it was 12.6 nM. For the same compound, in assay [5] (Table 3, ratio of Ki CB1/CB2), the “Fold Selectivity (CB1/CB2)” value was found to be 1.5.

As to `CCCCCCC(C)(C)c1cc(O)c2c(c1)OC(C)(C)[C@@H]1CC=C(C(=O)NC3CCCC3)C[C@@H]21` [Compound 92, (6aR,10aR)-N-cyclopentyl-1-hydroxy-6,6-dimethyl-3-(2-methyloctan-2-yl)-6a,7,10,10a-tetrahydro-6H-benzo[c]chromene-9-carboxamide], the “Immune modulation” value in assay [1] is recorded as “Reduced P-selectin”. The EC50 was determined as 28.8 nM in [6], 17.3 nM in assay [2], 1.6 nM in [7] and 1.4 nM in assay [3]. The same compound yielded a CB2 fold selectivity in assay [7] (Hit Hunter cAMP) of 17.7. For the same compound, the Ki came to 45.7 nM in assay [4] and 3.8 nM in assay [5]. Further, the “Fold Selectivity (CB1/CB2)” value in [5] (Table 3, ratio of Ki CB1/CB2) stood at 12.0.

A word on the inhibition: it is the relative decrease from the control value, in per cent. Read a low inhibition as little suppression. With `CCCCCCC(C)(C)c1cc(O)c2c(c1)OC(C)(C)[C@@H]1CC=C(C(=O)NC3CC3)C[C@@H]21` [Compound 6, (6aR,10aR)—N-Cyclopropyl-1-hydroxy-6,6-dimethyl-3-(2-methyloctan-2-yl)-6a,7,10,10a-tetrahydro-6H-benzo[c]chromene-9-carboxamide], the EC50 in assay [6] was 4.7 nM; in assay [2] (setting [10]), 160 nM; in [7] it was 0.8 nM; in assay [3] (setting [11]), 210 nM; in assay [8], < 3 nM; in [9], < 3 nM. The CB2 fold selectivity in assay [7] (Hit Hunter cAMP) worked out at 6.0. For the same compound, the Ki came to 45 nM in [4] and 3.9 nM in assay [5]. In [4], this compound came in with an inhibition at 0.5 µM of 64%. This compound also showed an inhibition at 0.05 µM in assay [5] of 98%. In addition, the “Fold Selectivity (CB1/CB2)” value in assay [5] (Table 2, ratio of Ki CB1/CB2) is 12.

`CCCCCCC(C)(C)c1cc(O)c2c(c1)OC(C)(C)[C@@H]1CC=C(C(=O)N[C@H](C)CCO)C[C@@H]21` [Compound 14, (6aR,10aR)-1-Hydroxy-N—((R)-4-hydroxybutan-2-yl)-6,6-dimethyl-3-(2-methyloctan-2-yl)-6a,7,10,10a-tetrahydro-6H-benzo[c]chromene-9-carboxamide]: the EC50 is 470 nM in [6] (setting [12]); > 3000 nM in assay [2] (setting [10]); 4.1 nM in [7] (setting [13]); 8 nM in assay [3] (setting [11]); 10 nM in assay [8] (setting [14]); 9.7 nM in assay [9] (setting [15]). The same compound had a CB2 fold selectivity in assay [7] (Hit Hunter cAMP) of 115.2. Also, the inhibition at 0.5 µM in assay [4] was 25%. Further, the inhibition constant (Ki) in assay [4] (setting [16]) turned out to be 1230 nM; in assay [5] (setting [17]) it was 56 nM. For the same compound, testing at 0.05 µM in [5] gave an inhibition of 47%. Also, the “Fold Selectivity (CB1/CB2)” value in assay [5] (Table 2, ratio of Ki CB1/CB2) came out at 22.

As to `CCCCCCC(C)(C)c1cc(O)c2c(c1)OC(C)(C)[C@@H]1CC=C(C(=O)NCC(O)CO)C[C@@H]21` (stereo partly drawn) [Compound 24, (6aR,10aR)-N-(2,3-Dihydroxypropyl)-1-hydroxy-6,6-dimethyl-3-(2-methyloctan-2-yl)-6a,7,10,10a-tetrahydro-6H-benzo[c]chromene-9-carboxamide], the EC50 was 223 nM in [6] (setting [12]); > 3000 nM in assay [2] (setting [10]); 3.5 nM in assay [7] (setting [13]); 2 nM in assay [3] (setting [11]); 13 nM in assay [8] (setting [14]); 2.4 nM in assay [9] (setting [15]). Also, in assay [7] (Hit Hunter cAMP), the CB2 fold selectivity is recorded as 63.5. This compound displayed an inhibition at 0.5 µM in assay [4] of 44%. For the same compound, the Ki in assay [4] (setting [16]) came to 1930 nM; in assay [5] (setting [17]), 55 nM. Besides, in assay [5], at 0.05 µM the inhibition was 60%. Moreover, the “Fold Selectivity (CB1/CB2)” value in assay [5] (Table 2, ratio of Ki CB1/CB2) is 35.

`CCCCCCC(C)(C)c1cc(O)c2c(c1)OC(C)(C)[C@@H]1CC=C(C(=O)NCCO)C[C@@H]21` [Compound 5, (6aR,10aR)-1-Hydroxy-N-(2-hydroxyethyl)-6,6-dimethyl-3-(2-methyloctan-2-yl)-6a,7,10,10a-tetrahydro-6H-benzo[c]chromene-9-carboxamide]: the EC50 was 32.2 nM in assay [6]; 620 nM in assay [2] (setting [10]); 3.9 nM in assay [7]; 520 nM in assay [3] (setting [11]); < 3 nM in assay [8]; 3.3 nM in assay [9]. The CB2 fold selectivity in [7] (Hit Hunter cAMP) is recorded as 8.2. Besides, the inhibition constant (Ki) in assay [4] stood at 350 nM; in [5], 28 nM. In addition, in [4], testing at 0.5 µM gave an inhibition of 49%. For the same compound, in assay [5], the inhibition at 0.05 µM worked out at 57%. Moreover, in assay [5] (Table 2, ratio of Ki CB1/CB2), the “Fold Selectivity (CB1/CB2)” value was determined as 12.6.

For the compound `CCCCCCC(C)(C)c1cc(O)c2c(c1)OC(C)(C)[C@@H]1CC=C(C(=O)N3CCCCC3)C[C@@H]21` [Compound 93, ((6aR,10aR)-1-hydroxy-6,6-dimethyl-3-(2-methyloctan-2-yl)-6a,7,10,10a-tetrahydro-6H-benzo[c]chromen-9-yl)(piperidin-1-yl)methanone], the “Immune modulation” value in assay [1] is “Reduced Eotaxin-3, P-selectin, CD69, and M-CSF; increased IL-6”. In addition, the EC50 in assay [2] is > 3000 nM; in assay [3] (setting [11]) it was 3.1 nM. Moreover, the Ki worked out at 243 nM in assay [4] and 31.9 nM in [5]. Besides, in assay [5] (Table 3, ratio of Ki CB1/CB2), the “Fold Selectivity (CB1/CB2)” value is 7.6.
